Reference: patent publication US20120040966A1, “ANTI-VIRAL COMPOUNDS, TREATMENT, AND ASSAY” (priority 2008, published 2012)
Where two headings read alike, the source gives them in different places.

Experiments:
[1] = tested on: Madin Darby Canine Kidney (MDCK) cells; assay: cells; type: cell-based; details: Canis lupus familiaris, MDCK, read-out: IC50 (toxicity)
[2] = tested on: Influenza virus strain A/CA/04/2009 (H1N1); assay: organism not typed; type: cell-based; details: MDCK, 72 h, read-out: H1N1 EC50 (@ 50% Via)
[3] = tested on: influenza strain A/VN/1203/2004 (H5N1); assay: microbe, parasite or virus in culture; type: cell-based, Influenza A virus (H5N1)
[4] = Influenza A virus, H5N1, MDCK, 72 h, read-out: H5N1 EC50 (@ 50% Via)
[5] = Influenza A virus, H5N1, MDCK, 72 h, read-out: H5N1 EC50 (Inf Pt)
[6] = read-out: H5N1 EC50 (@ 50% Via)

| Compound | IC50 [1] [µM] | EC50 [2] [µM] | EC50 [3, 4] [µM] | EC50 [3, 5] [µM] | EC50 [3, 6] [µM] | EC50 ([3]; read-out: H5N1 EC50 (Inf Pt)) [µM] |
| --- | --- | --- | --- | --- | --- | --- |
| Cc1ccc(C2NC(=O)NC3=C2CCCc2ccccc23)cc1 (stereo not drawn) [compound 22083] | > 50 | 9.5 | 28 | – | – | – |
| COc1ccc2c(c1)C1=C(CC2)C(c2ccc(C)cc2)NC(=O)N1 (stereo not drawn) [compound 22087] | > 50 | 47 | > 50 | – | – | – |
| Cc1ccc(C2NC(=O)NC3=C2COc2ccccc23)cc1C (stereo not drawn) [compound 22105] | > 50 | 14.9 | 1.8 | 1 | 2.7 | 1.9 |
| COc1cccc(C2NC(=O)NC3=C2COc2ccccc23)c1 (stereo not drawn) [compound 22107] | > 50 | 46 | > 50 | > 50 | – | – |
| Cc1cccc(C2NC(=O)NC3=C2COc2ccccc23)c1 (stereo not drawn) [compound 22109] | > 50 | > 50 | – | – | – | – |
| COc1cccc2c1CCC1=C2NC(=O)NC1c1ccc(C)c(C)c1 (stereo not drawn) [compound 22113] | > 50 | 16.8 | – | 2.4 | – | 4.4 |
| O=C1NC2=C(CCc3ccccc32)C(c2ccc(C(F)(F)F)cc2)N1 (stereo not drawn) [compound 22119] | > 50 | 11.7 | 32.9 | 14.8 | – | – |
| O=C1NC2=C(CCc3ccccc32)C(c2ccc3c(c2)OCO3)N1 (stereo not drawn) [compound 22121] | 29.6 | > 50 | 0.39 | 0.34 | – | 0.22 |
| COc1cccc2c1CCC1=C2NC(=O)NC1c1ccc(C)cc1 (stereo not drawn) [compound 22123] | > 50 | > 50 | 18.3 | 10.9 | – | – |
| COc1ccc(-c2nc(=O)[nH]c3c2CCc2ccccc2-3)cc1 [compound 22125] | > 50 | 24 | 0.96 | 0.92 | 1.62 | 1.45 |
| O=C1NC2=C(CCc3ccccc32)C(c2cccc([N+](=O)[O-])c2)N1 (stereo not drawn) [compound 22347] | > 50 | > 50 | 5.5 | 4.2 | – | – |
| O=C1NC2=C(CCc3ccccc32)C(c2ccc([N+](=O)[O-])cc2)N1 (stereo not drawn) [compound 22349] | > 50 | 17.7 | 1.17 | 0.95 | – | – |
| O=C1NC2=C(COc3ccccc32)C(c2ccc(Cl)c(Cl)c2)N1 (stereo not drawn) [compound 22404] | > 50 | > 50 | 1.6 | – | 0.94 | – |
| COc1ccc(C2NC(=O)NC3=C2CCc2ccccc23)cc1Br (stereo not drawn) [compound 22405] | > 50 | 0.425 | – | – | – | – |
| O=C1NC2=C(CCc3ccccc32)C(c2ccc(Cl)cc2Cl)N1 (stereo not drawn) [compound 22406] | > 50 | > 50 | > 50 | > 50 | – | – |
| O=C1NC2=C(CCc3ccccc32)C(c2ccc(F)c(Br)c2)N1 (stereo not drawn) [compound 22409] | > 50 | 1.4 | – | – | – | – |
| COc1ccc(C2NC(=O)NC3=C2CSc2ccccc23)cc1Br (stereo not drawn) [compound 22412] | > 50 | 0.351 | – | – | – | – |
| O=C1NC2=C(C(c3ccc4c(c3)OCO4)N1)C(c1ccccc1)Oc1ccccc12 (stereo not drawn) [compound 22421] | > 50 | > 50 | > 50 | > 50 | – | – |
| COc1ccc(C2NC(=O)NC3=C2CCc2ccccc23)cc1C (stereo not drawn) [compound 22516] | > 50 | 10 | – | – | – | – |
| COc1cc(C2NC(=O)NC3=C2CCc2ccccc23)ccc1F (stereo not drawn) [compound 22517] | > 50 | > 50 | 9.6 | 7.2 | – | – |
| CCOc1cccc(C2NC(=O)NC3=C2CCc2ccccc23)c1 (stereo not drawn) [compound 22520] | > 50 | > 50 | – | 7.1 | – | – |
| COc1ccc(C2NC(=O)NC3=C2COc2ccccc23)cc1Br (stereo not drawn) [compound 22521] | > 50 | 4 | – | – | – | – |

| Compound | IC50 [1] [µM] | EC50 [2] [µM] | EC50 [3, 4] [µM] | EC50 [3, 5] [µM] | EC50 [3, 6] [µM] | EC50 ([3]; read-out: H5N1 EC50 (Inf Pt)) [µM] |
| --- | --- | --- | --- | --- | --- | --- |
| COc1ccc(C2NC(=O)NC3=C2CCc2ccccc23)cc1F (stereo not drawn) [compound 22522] | > 50 | 3.8 | 0.26 | 0.19 | – | – |
| COc1ccc(C2NC(=O)NC3=C2CCc2ccccc23)cc1OC (stereo not drawn) [compound 22524] | > 50 | 39 | 7.4 | 7 | – | – |
| COc1ccc(C2NC(=O)NC3=C2CCc2c(C)cc(C)cc23)cc1Br (stereo not drawn) [compound 22526] | 6.9 | > 50 | > 48 | > 48 | – | – |
| COc1ccc(C2NC(=O)NC3=C2CC(C)c2ccccc23)cc1Br (stereo not drawn) [compound 22700] | > 48 | 0.0985 | – | – | – | – |
| O=C1NC2=C(COc3ccccc32)C(c2ccc(O)c(Br)c2)N1 (stereo not drawn) [compound 22701] | > 20 | 1.6 | 0.0262 | 0.021 | 0.027 | 0.027 |
| COc1c(Br)cc(C2NC(=O)NC3=C2CCc2ccccc23)cc1Br (stereo not drawn) [compound 22703] | > 40 | > 40 | 38 | > 40 | – | – |
| Cc1cc(C2NC(=O)NC3=C2CCc2ccccc23)ccc1O (stereo not drawn) [compound 22706] | > 50 | 4.8 | – | – | – | – |
| COc1ccc(C2NC(=O)N(O)C3=C2CCc2ccccc23)cc1Br (stereo not drawn) [compound 22708] | > 50 | – | 1.1 | > 0.95 | – | – |
| O=C1NC2=C(CCc3ccccc32)C(c2ccc(O)c(Br)c2)N1 (stereo not drawn) [compound 22709] | > 53 | 0.118 | – | – | – | – |
| COc1ccc(-c2nc(=O)[nH]c3c2CCc2ccccc2-3)cc1Br [compound 22710] | > 50 | – | > 50 | > 50 | – | – |
| COc1ccc(C2NC(=O)NC3=C2CN(C(C)=O)c2ccccc23)cc1Br (stereo not drawn) [compound 23099] | > 40 | 0.0062 | – | – | – | – |
| COc1ccc(C2NC(=O)NC3=C2CNc2ccccc23)cc1Br (stereo not drawn) [compound 23100] | > 40 | – | 0.637 | 0.718 | – | – |
| COc1ccc(C2NC(=O)NC3=C2CN(C)c2ccccc23)cc1Br (stereo not drawn) [compound 23101] | > 40 | – | > 6 | > 6 | – | – |
| COc1ccc(C2NC(=O)NC3=C2CN(S(C)(=O)=O)c2ccccc23)cc1Br (stereo not drawn) [compound 23207] | > 40 | – | 29 | 31 | – | – |
| COc1ccc(C2NC(=O)NC3=C2CN(C(=O)c2ccncc2)c2ccccc23)cc1Br (stereo not drawn) [compound 23208] | > 40 | – | > 40 | > 40 | – | – |
| COc1ccc(C2NC(=O)Nc3c2cnc2ccccc32)cc1Br (stereo not drawn) [compound 23273] | > 40 | – | 2.1 | 1.6 | – | – |
| COc1ccc(C2NC(=O)NC3=C2CN(C(=O)CN)c2ccccc23)cc1Br (stereo not drawn) [compound 24716] | > 40 | – | 3.1 | 3.1 | – | – |
| CCN(CC)CC(=O)N1CC2=C(NC(=O)NC2c2ccc(OC)c(Br)c2)c2ccccc21 (stereo not drawn) [compound 24719] | > 40 | – | 1.2 | 1.2 | – | – |
| COc1ccc(C2NC(=O)NC3=C2CN(C(=O)C[n+]2ccccc2)c2ccccc23)cc1Br (stereo not drawn) [compound 25009] | > 40 | – | 7.1 | 7.1 | – | – |
| COc1ccc(C2NC(=O)NC3=C2CN(C(=O)Cn2ccnc2)c2ccccc23)cc1Br (stereo not drawn) [compound 25010] | > 40 | – | < 0.316 | 0.082 | – | – |
| COc1ccc(C2NC(=O)NC3=C2CN(C(=O)CNCCN2CCOCC2)c2ccccc23)cc1Br (stereo not drawn) [compound 25011] | > 40 | – | 3.9 | 3.9 | – | – |
| COc1ccc(C2NC(=O)NC3=C2CN(C(=O)CSCCN(C)C)c2ccccc23)cc1Br (stereo not drawn) [compound 25410] | – | 15.6 | 0.714 | 0.669 | – | – |
